# Measured values as given in PMC10917340, “Coxsackievirus infection induces direct pancreatic β cell killing but poor antiviral CD8^+ T cell responses” (Science Advances, 2024).
# Where two headings read alike, the source gives them in different places.
# What was measured:
# HLA-A2 = target: T1, HLA-A2 (Homo sapiens, UniProt P04439, D140Y/D185E/D98H/E176V/E277Q/G131W/G231S/I119V/I121R/I166T/I218V/N151K/N90K/P208A/P217A/Q86G/Q94H/R138H/R169H); test: In vitro HLA-I binding assay (bead-captured folded monomers)
# T1 construct: purchased ImmunAware
# circulating CD8+ T cells [1] = test: Combinatorial HLA-A2 multimer (MMr) assay, screening round; assay type: cell-based, human; conditions: for Screening round % effector/memory median (range): HLA-A2, effector/memory (non CD45RA+CCR7+) fraction among MMr+CD8+ T cells; for Screening round Frequency median: HLA-A2 MMr+CD8+ T cells out of total CD8+ T cells, frozen/thawed PBMCs, CVB-seropositive healthy adults, median of donors
# circulating CD8+ T cells [2] = test: Combinatorial HLA-A2 multimer (MMr) assay, validation round; assay type: cell-based, human; conditions: HLA-A2 MMr+CD8+ out of total CD8+ T cells; donors/peptides with <3 MMr+ cells noted as 1.0E-7
# [3] = in silico predicted HLA-A2-binding peptides, fig. S2D
Sequence,In vitro binding to HLA-A2 (in words) (HLA-A2),Screening round % effector/memory median (range) (circulating CD8+ T cells [1]),Screening round Frequency median (circulating CD8+ T cells [1]),In vitro binding to HLA-A2 (in words) (HLA-A2; [3]),further results
"GIIYIIYKL [previously reported CVB peptide, IEDB #20311]",did not confirm as binders,,,,
"IMIKSMPAL [CVB1-2-5 60-68, HLA-A2, in silico]",,26 (0-70) %,2.2 E-5,,Validation round Frequency median (circulating CD8+ T cells [2]): 1.0 E-7
KLPDALSQM,,,,did not confirm as binders,
VIASYPWPI,did not confirm as binders,,,,
VMGDALGSV [ZnT8245-253 peptide homologous to CVB1 150-158],,,,did not confirm as binders,
"VMIKSLPAL [CVB4-6 60-68, HLA-A2, in silico]",,20 (20-20) %,5.3 E-6,,
